Data published in paper PMC8780828 (Viruses, 2021).
≈ marks a conversion by molar mass, not a printed value. Like-named read-outs stand apart in the source and are kept apart here.

Key:
[1] = biological target: CYP2C19 (Homo sapiens, UniProt P33261); assay: in vitro; settings: microsomes, pH 7.4
[2] = tested on: pseudovirus SARS-CoV-2; assay: organism not typed; format: cell-based
[3] = biological target: β-lactamase; format: biochemical
[4] = tested on: pseudovirus NL4-3ΔEnv-NanoLuc/SARS-CoV-2; assay: organism not typed; format: cell-based; settings: A549-ACE2; n=3
[5] = in vitro; settings: both, human, plasma
[6] = biological target: T1, CYP3A (Homo sapiens, UniProt P08684); assay: in vitro; settings: microsomes
T1 sequence (P08684 2-503): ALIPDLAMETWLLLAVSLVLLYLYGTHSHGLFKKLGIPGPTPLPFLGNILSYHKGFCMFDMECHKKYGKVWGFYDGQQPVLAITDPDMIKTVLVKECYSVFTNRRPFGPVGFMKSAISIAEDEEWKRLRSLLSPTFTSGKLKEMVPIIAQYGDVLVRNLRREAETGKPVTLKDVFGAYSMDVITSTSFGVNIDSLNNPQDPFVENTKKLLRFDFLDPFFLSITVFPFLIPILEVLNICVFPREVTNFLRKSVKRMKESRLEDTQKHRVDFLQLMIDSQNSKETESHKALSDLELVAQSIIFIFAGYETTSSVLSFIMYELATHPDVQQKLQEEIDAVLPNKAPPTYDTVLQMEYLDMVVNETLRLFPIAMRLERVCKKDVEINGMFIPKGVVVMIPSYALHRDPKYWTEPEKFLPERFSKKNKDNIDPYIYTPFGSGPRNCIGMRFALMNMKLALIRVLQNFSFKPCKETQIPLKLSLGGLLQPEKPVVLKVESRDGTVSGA

[7] = biological target: T2, CYP2C9 (Homo sapiens, UniProt P11712); assay: in vitro; settings: microsomes, pH 7.4
T2 sequence (P11712 whole entry): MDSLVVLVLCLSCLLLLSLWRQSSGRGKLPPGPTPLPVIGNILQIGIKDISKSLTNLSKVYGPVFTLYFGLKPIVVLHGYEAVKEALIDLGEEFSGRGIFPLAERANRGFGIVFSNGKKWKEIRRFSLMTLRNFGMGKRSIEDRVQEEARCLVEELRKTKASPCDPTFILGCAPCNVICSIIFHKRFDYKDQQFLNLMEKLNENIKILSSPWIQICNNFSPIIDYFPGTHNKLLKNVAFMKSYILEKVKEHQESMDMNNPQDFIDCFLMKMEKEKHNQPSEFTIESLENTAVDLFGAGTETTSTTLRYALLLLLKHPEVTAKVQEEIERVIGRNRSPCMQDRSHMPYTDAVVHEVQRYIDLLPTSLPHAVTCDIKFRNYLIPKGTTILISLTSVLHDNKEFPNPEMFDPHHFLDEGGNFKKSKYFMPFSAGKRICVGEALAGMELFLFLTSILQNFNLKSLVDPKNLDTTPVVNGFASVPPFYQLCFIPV

[8] = biological target: CYP2C8 (Homo sapiens, UniProt P10632); assay: biochemical
CYP2C8, sequence (P10632 whole entry): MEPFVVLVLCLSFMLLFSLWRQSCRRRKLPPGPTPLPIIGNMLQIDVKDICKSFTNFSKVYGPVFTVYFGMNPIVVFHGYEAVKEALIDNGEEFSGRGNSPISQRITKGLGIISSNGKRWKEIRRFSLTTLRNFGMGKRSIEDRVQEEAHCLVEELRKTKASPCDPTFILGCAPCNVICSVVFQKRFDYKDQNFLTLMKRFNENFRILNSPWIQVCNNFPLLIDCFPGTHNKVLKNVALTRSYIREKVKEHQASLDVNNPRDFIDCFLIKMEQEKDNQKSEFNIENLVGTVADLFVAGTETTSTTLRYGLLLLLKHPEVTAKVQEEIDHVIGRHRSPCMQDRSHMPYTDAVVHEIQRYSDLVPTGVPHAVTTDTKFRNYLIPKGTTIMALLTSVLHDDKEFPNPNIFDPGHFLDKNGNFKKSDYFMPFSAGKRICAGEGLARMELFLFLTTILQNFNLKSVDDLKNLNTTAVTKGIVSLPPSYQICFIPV

[9] = tested on: pseudovirus NL4-3ΔEnv-NanoLuc/MERS-CoV; assay: microbe, parasite or virus in culture; format: cell-based; settings: Middle East respiratory syndrome-related coronavirus, Huh-7; n=3; read-out: IC50
[10] = tested on: pseudovirus NL4-3ΔEnv-NanoLuc/SARS-CoV; assay: microbe, parasite or virus in culture; format: cell-based; settings: Severe acute respiratory syndrome coronavirus, A549-ACE2; n=3; read-out: IC50
[11] = in vivo; settings: female, Sprague Dawley, rat; for MRT inf: MRT0-inf_obs; for half-life: t1/2
[12] = biological target: T2, CYP2C9; assay: biochemical
[13] = tested on: Caco-2 cells
[14] = biological target: CYP1A2 (Homo sapiens, UniProt P05177); assay: in vitro; settings: microsomes, pH 7.4
CYP1A2, sequence (P05177 whole entry): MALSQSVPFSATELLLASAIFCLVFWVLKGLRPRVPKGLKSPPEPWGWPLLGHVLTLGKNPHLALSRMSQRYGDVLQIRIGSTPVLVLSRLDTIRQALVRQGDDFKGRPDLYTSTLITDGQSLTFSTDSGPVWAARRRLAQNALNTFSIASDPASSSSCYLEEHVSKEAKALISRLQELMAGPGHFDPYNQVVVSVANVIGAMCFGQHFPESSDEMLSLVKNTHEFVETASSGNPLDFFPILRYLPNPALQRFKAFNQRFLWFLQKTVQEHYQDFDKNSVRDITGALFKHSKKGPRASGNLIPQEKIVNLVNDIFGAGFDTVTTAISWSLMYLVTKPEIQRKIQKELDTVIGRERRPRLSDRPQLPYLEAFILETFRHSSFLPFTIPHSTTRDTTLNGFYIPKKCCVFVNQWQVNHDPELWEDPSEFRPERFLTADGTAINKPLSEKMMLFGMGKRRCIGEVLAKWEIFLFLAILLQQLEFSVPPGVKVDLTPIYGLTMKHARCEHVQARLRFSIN

[15] = tested on: P-gp; assay: in vitro; settings: human
[16] = tested on: pseudovirus NL4-3ΔEnv-NanoLuc/SARS-CoV; assay: microbe, parasite or virus in culture; format: cell-based; settings: Severe acute respiratory syndrome coronavirus, HT-1080; n=3; read-out: IC50
[17] = biological target: CYP2D6 (Homo sapiens, UniProt P10635); assay: in vitro; settings: microsomes, pH 7.4
CYP2D6, sequence (P10635 whole entry): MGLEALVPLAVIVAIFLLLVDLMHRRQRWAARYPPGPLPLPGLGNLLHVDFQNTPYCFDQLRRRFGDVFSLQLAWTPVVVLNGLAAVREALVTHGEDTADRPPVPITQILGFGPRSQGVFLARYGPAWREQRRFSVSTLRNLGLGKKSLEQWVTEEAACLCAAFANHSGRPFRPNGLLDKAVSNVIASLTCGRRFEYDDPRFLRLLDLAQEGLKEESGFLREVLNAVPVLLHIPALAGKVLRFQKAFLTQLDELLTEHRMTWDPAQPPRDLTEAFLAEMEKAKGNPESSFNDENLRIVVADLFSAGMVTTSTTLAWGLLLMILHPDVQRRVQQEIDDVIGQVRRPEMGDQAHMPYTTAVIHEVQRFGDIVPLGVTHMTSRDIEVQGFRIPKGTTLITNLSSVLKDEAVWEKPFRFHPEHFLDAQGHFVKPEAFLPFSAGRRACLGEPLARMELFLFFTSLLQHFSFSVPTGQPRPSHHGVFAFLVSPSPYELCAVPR

[18] = biological target: T1, CYP3A; settings: n=1
[19] = tested on: pseudovirus NL4-3ΔEnv-NanoLuc/MERS-CoV; assay: microbe, parasite or virus in culture; format: cell-based; settings: Middle East respiratory syndrome-related coronavirus, MRC5; n=3; read-out: IC50
[20] = tested on: NL4-3ΔEnv-NanoLuc/SARS-CoV-2; assay: organism not typed; format: cell-based
[21] = in vitro; settings: both, human, microsomes, pH 7.4
[22] = physchem
[23] = rat, in vivo
[24] = tested on: control pseudovirus NL4-3.Luc.R-E-/A-MLV; assay: Control pseudovirus A-MLV assay in 293T/ACE2 cells; format: cell-based, amphotropic murine leukemia virus (A-MLV); settings: NL43, 293T/ACE2
[25] = tested on: Trypsin; format: biochemical
[26] = tested on: pseudovirus NL4-3ΔEnv-NanoLuc/SARS-CoV-2; assay: organism not typed; format: cell-based; settings: HT-1080; n=3
[27] = female, Sprague Dawley, iv, 5 mg/kg

CYP2C19, sequence (P33261 whole entry): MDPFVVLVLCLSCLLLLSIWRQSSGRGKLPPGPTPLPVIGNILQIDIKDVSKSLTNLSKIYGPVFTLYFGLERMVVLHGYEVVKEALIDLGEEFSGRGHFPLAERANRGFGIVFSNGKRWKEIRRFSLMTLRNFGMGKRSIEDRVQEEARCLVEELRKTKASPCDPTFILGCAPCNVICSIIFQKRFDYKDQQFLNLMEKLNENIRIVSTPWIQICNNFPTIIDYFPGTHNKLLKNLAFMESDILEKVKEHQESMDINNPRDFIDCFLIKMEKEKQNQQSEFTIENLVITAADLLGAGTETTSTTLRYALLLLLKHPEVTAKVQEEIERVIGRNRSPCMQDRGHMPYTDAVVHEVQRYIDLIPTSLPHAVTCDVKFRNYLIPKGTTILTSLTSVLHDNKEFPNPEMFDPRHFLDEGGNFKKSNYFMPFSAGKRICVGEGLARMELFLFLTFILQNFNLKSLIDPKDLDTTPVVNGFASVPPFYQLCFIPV

O=C(O)c1cc(-c2ccc(/C=C3\SC(=S)N(CCc4ccccc4)C3=O)o2)ccc1Cl [NBCoV1]
activity at 0.0137 µM [1]: 103%
activity at 0.0412 µM [1]: 110%
activity at 0.123 µM [1]: 101%
activity at 0.37 µM [1]: 102%
activity at 1.11 µM [1]: 92%
activity at 3.33 µM [1]: 70.8%
activity at 10 µM [1]: 40.7%
IC50 ([2]; 293T/ACE2): 50 nM
IC50 ([2]; read-out: IC50): 45 nM
IC50 [3]: > 2000 nM
IC50 [4]: 63.6 ± 4.6 nM
fraction unbound [5]: < 0.005
fraction unbound ([5]; % Bound, single replicates (R1, R2)): < 0.005
IC50 ([6]; pH 7.4): > 10000 nM
activity at 0.0137 µM ([6]; pH 7.4, % of Control Enzyme Activity, 0.0137 μM, n=1): 96.7%
activity at 0.0412 µM ([6]; pH 7.4, % of Control Enzyme Activity, 0.0412 μM, n=1): 97%
activity at 0.123 µM ([6]; pH 7.4, % of Control Enzyme Activity, 0.123 μM, n=1): 94.5%
activity at 0.37 µM ([6]; pH 7.4, % of Control Enzyme Activity, 0.370 μM, n=1): 95.1%
activity at 1.11 µM ([6]; pH 7.4, % of Control Enzyme Activity, 1.11 μM, n=1): 95.9%
activity at 3.33 µM ([6]; pH 7.4, % of Control Enzyme Activity, 3.33 μM, n=1): 88.2%
activity at 10 µM ([6]; pH 7.4, % of Control Enzyme Activity, 10 μM, n=1): 61.6%
activity at 0.0137 µM [7]: 99.4%
activity at 0.0412 µM [7]: 98.2%
activity at 0.123 µM [7]: 97.2%
activity at 0.37 µM [7]: 95.1%
activity at 1.11 µM [7]: 85.1%
activity at 3.33 µM [7]: 59.9%
activity at 10 µM [7]: 29.8%
IC50 [8]: 2080 nM
IC50 [9]: 95 ± 22 nM
IC50 [10]: 98 ± 4 nM
bioavailability ([11]; F% (bioavailability)): 20%
C0 ([11]; iv, 5 mg/kg): 7410 ng/mL
Tmax ([11]; iv, 5 mg/kg): 0.25 h
Cmax ([11]; iv, 5 mg/kg): 7820 ng/mL
MRT inf ([11]; iv, 5 mg/kg): 4.02 h
half-life ([11]; iv, 5 mg/kg): 3.57 h
Tmax ([11]; po, 10 mg/kg): 2 h
Cmax ([11]; po, 10 mg/kg): 1500 ng/mL
MRT inf ([11]; po, 10 mg/kg): 14 h
half-life ([11]; po, 10 mg/kg): 11.3 h
IC50 [12]: 5010 nM
Caco-2 permeability (mean Papp) A-to-B ([13]; 5 µM): 20.5 ×10⁻⁶ cm/s
Caco-2 permeability (mean Papp) B-to-A ([13]; 5 µM): 23.6 ×10⁻⁶ cm/s
P-gp Substrate classification ([13]; Caco-2): Negative
activity at 0.0137 µM [14]: 99.2%
activity at 0.0412 µM [14]: 96.7%
activity at 0.123 µM [14]: 93.8%
activity at 0.37 µM [14]: 92.2%
activity at 1.11 µM [14]: 89.8%
activity at 3.33 µM [14]: 69.5%
activity at 10 µM [14]: 41.3%
Papp A→B ([15]; Caco-2, pH 7.4, Caco-2 permeability (mean Papp) A-to-B, 5 µM): 16.9 ×10⁻⁶ cm/s
Papp B→A ([15]; Caco-2, pH 7.4, Caco-2 permeability (mean Papp) B-to-A, 5 µM): 20.4 ×10⁻⁶ cm/s
Papp A→B ([15]; Caco-2, pH 7.4, Papp A-to-B, single replicates (R1, R2)): 20.4 ×10⁻⁶ cm/s
Papp B→A ([15]; Caco-2, pH 7.4, Papp B-to-A, single replicates (R1, R2)): 20.9 ×10⁻⁶ cm/s
IC50 [16]: 39 ± 8.2 nM
IC50 [17]: > 10000 nM
activity at 0.0137 µM [17]: 95.8%
activity at 0.0412 µM [17]: 98.7%
activity at 0.123 µM [17]: 98.6%
activity at 0.37 µM [17]: 101%
activity at 1.11 µM [17]: 97%
activity at 3.33 µM [17]: 84.3%
activity at 10 µM [17]: 59.2%
% of Control Enzyme Activity ([18]; 0.0137 μM): 96.6%
% of Control Enzyme Activity ([18]; 0.0412 μM): 97.0%
% of Control Enzyme Activity ([18]; 0.123 μM): 94.8%
% of Control Enzyme Activity ([18]; 0.370 μM, 0.37 µM): 96.3%
% of Control Enzyme Activity ([18]; 1.11 μM): 94.6%
% of Control Enzyme Activity ([18]; 3.33 μM): 82.2%
% of Control Enzyme Activity ([18]; 10 μM): 59.9%
IC50 [19]: 76.5 ± 0.3 nM
IC100 (range of IC100 values detected in the three cell lines) [20]: 0.25 to 1 µM
IC50 ([20]; read-out: IC50 (range over the three cell lines)): 32.3 to 63.4 nM
half-life [21]: 1.87 h
microsomal CLint [21]: 12.4 µL/min/mg
remaining at 0.25 h [21]: 101%
remaining at 0.5 h [21]: 80.5%
remaining at 1 h [21]: 68.9%
remaining at 1.5 h [21]: 69.5%
remaining at 2 h [21]: 41.6%
solubility ([22]; pH 7.4, Solubility (AVG)): 4.72 µM (≈ 2.22 µg/mL)
solubility ([22]; pH 7.4, Solubility, single replicates (R1, R2)): 4.35 µM (≈ 2.04 µg/mL)
F% (bioavailability) ([23]; female, Sprague Dawley): 20.1%
CLobs [23, 27]: 0.00013 (mg/kg)/(ng/mL)/h
Vss_obs [23, 27]: 0.00053 (mg/kg)/(ng/mL)
AUC0-t ([23]; iv, 5 mg/kg): 37,515.91 ng/mL ∗ h
AUC0-t ([23]; po, 10 mg/kg): 12,023.00 ng/mL ∗ h
Vz/F_obs ([23]; po, 10 mg/kg): 0.01078 (mg/kg)/(ng/mL)
IC50 [24]: 1397 ± 12 nM
IC50 [25]: > 2000 nM
IC50 [26]: 32.3 ± 4.6 nM
